# Reference: PMC5218480 (PLoS ONE, 2017)
# Tested on: MV-4-11 cells
# Assay: Gene expression microarray analysis (Affymetrix PrimeView) and GSEA
# Assay type: cell-based, human
# Set-up: RFU PODN (11730768_x_at) / Fold change /veh PODN (11730768_x_at) / RFU LINC00158 (11744669_a_at) / Fold change /veh LINC00158 (11744669_a_at) / RFU DUSP10 (11751237_a_at) / Fold change /veh DUSP10 (11751237_a_at) / RFU ID3 (11757404_x_at) / Fold change /veh ID3 (11757404_x_at) / RFU PLEKHG5 (11737974_s_at) / Fold change /veh PLEKHG5 (11737974_s_at) / RFU LRRC4B (11730491_at) / Fold change /veh LRRC4B (11730491_at) / RFU GIMAP4 (11747438_a_at) / Fold change /veh GIMAP4 (11747438_a_at) / RFU KRT8 (11758183_x_at) / Fold change /veh KRT8 (11758183_x_at) / RFU CNN1 (11734310_a_at) / Fold change /veh CNN1 (11734310_a_at) / RFU VPS37D (11726825_at) / Fold change /veh VPS37D (11726825_at) / RFU C10orf10 (11716522_x_at) / Fold change /veh C10orf10 (11716522_x_at) / RFU KIR2DL2 /// KIR2DL4 /// KIR2DL5A /// KIR2DL5B /// KIR2DS1 /// KIR2DS2 /// KIR2DS3 /// KIR2DS4 /// KIR3DL3 /// KIR3DL3 /// KIR3DS1 (11738374_at) / Fold change /veh KIR2DL2 /// KIR2DL4 /// KIR2DL5A /// KIR2DL5B /// KIR2DS1 /// KIR2DS2 /// KIR2DS3 /// KIR2DS4 /// KIR3DL3 /// KIR3DL3 /// KIR3DS1 (11738374_at) / RFU C1QL1 (11718748_at) / Fold change /veh C1QL1 (11718748_at) / RFU TMPRSS4 (11747572_a_at) / Fold change /veh TMPRSS4 (11747572_a_at) / RFU HAMP (11756126_x_at) / Fold change /veh HAMP (11756126_x_at) / RFU RNFT2 (11725882_a_at) / Fold change /veh RNFT2 (11725882_a_at) / RFU NR4A2 (11747474_a_at) / Fold change /veh NR4A2 (11747474_a_at) / RFU ABCC12 (11746883_a_at) / Fold change /veh ABCC12 (11746883_a_at) / RFU TMEM136 (11760407_x_at) / Fold change /veh TMEM136 (11760407_x_at) / RFU CLDN22 /// WWC2 (11732394_at) / Fold change /veh CLDN22 /// WWC2 (11732394_at) / RFU HLA-DPB1 (11760878_x_at) / Fold change /veh HLA-DPB1 (11760878_x_at) / RFU SPINT1 (11716480_a_at) / Fold change /veh SPINT1 (11716480_a_at) / RFU GAP43 (11754022_s_at) / Fold change /veh GAP43 (11754022_s_at) / RFU A4GNT (11735810_at) / Fold change /veh A4GNT (11735810_at) / RFU PRB3 (11715151_x_at) / Fold change /veh PRB3 (11715151_x_at) / RFU TUBB4B (11761932_at) / Fold change /veh TUBB4B (11761932_at) / RFU CAPN14 (11732068_a_at) / Fold change /veh CAPN14 (11732068_a_at) / RFU TMCC2 (11721928_a_at) / Fold change /veh TMCC2 (11721928_a_at) / RFU IRGQ (11745062_a_at) / Fold change /veh IRGQ (11745062_a_at) / RFU FAM174B (11720279_a_at) / Fold change /veh FAM174B (11720279_a_at) / RFU TMPRSS4 (11748680_a_at) / Fold change /veh TMPRSS4 (11748680_a_at) / RFU FAM212B (11763350_a_at) / Fold change /veh FAM212B (11763350_a_at) / RFU PLEKHG5 (11743358_a_at) / Fold change /veh PLEKHG5 (11743358_a_at) / RFU ZSCAN30 (11745921_a_at) / Fold change /veh ZSCAN30 (11745921_a_at) / RFU CMKLR1 (11741424_a_at) / Fold change /veh CMKLR1 (11741424_a_at) / RFU LOC101060620 /// MAPK8IP1 (11723275_at) / Fold change /veh LOC101060620 /// MAPK8IP1 (11723275_at) / RFU SPTSSB (11747773_x_at) / Fold change /veh SPTSSB (11747773_x_at) / RFU PRSS12 (11739890_at) / Fold change /veh PRSS12 (11739890_at) / RFU BIN1 (11741810_x_at) / Fold change /veh BIN1 (11741810_x_at) / RFU WNT11 (11732464_a_at) / Fold change /veh WNT11 (11732464_a_at) / RFU C10orf10 (11716521_a_at) / Fold change /veh C10orf10 (11716521_a_at) / RFU C5orf56 (11738089_at) / Fold change /veh C5orf56 (11738089_at) / RFU CYB561 (11721691_x_at) / Fold change /veh CYB561 (11721691_x_at) / RFU ANKRD19P (11752326_a_at) / Fold change /veh ANKRD19P (11752326_a_at) / RFU OR2T12 /// OR2T33 /// OR2T8 (11738714_s_at) / Fold change /veh OR2T12 /// OR2T33 /// OR2T8 (11738714_s_at) / RFU VCAN (11748164_a_at) / Fold change /veh VCAN (11748164_a_at) / RFU JSRP1 (11732532_at) / Fold change /veh JSRP1 (11732532_at) / RFU KRTAP10-11 (11738290_x_at) / Fold change /veh KRTAP10-11 (11738290_x_at) / RFU MYO3A (11730013_a_at) / Fold change /veh MYO3A (11730013_a_at) / RFU EBF3 (11725865_a_at) / Fold change /veh EBF3 (11725865_a_at) / RFU CAMK2N1 (11719241_x_at) / Fold change /veh CAMK2N1 (11719241_x_at) / RFU C5orf56 (11738088_a_at) / Fold change /veh C5orf56 (11738088_a_at) / RFU OLFML3 (11715873_a_at) / Fold change /veh OLFML3 (11715873_a_at) / RFU LOC100653217 /// NTM (11731650_a_at) / Fold change /veh LOC100653217 /// NTM (11731650_a_at) / RFU MAPK11 (11762145_a_at) / Fold change /veh MAPK11 (11762145_a_at) / RFU FIZ1 (11724087_x_at) / Fold change /veh FIZ1 (11724087_x_at) / RFU OASL (11726364_x_at) / Fold change /veh OASL (11726364_x_at) / RFU SOX15 (11748057_x_at) / Fold change /veh SOX15 (11748057_x_at) / RFU CD79A (11719716_a_at) / Fold change /veh CD79A (11719716_a_at) / RFU HIST1H1D (11736915_at) / Fold change /veh HIST1H1D (11736915_at) / RFU CASKIN2 (11723855_a_at) / Fold change /veh CASKIN2 (11723855_a_at) / RFU LOC730098 (11760151_x_at) / Fold change /veh LOC730098 (11760151_x_at) / RFU OR4N2 (11742367_at) / Fold change /veh OR4N2 (11742367_at) / RFU PRRT2 (11749266_a_at) / Fold change /veh PRRT2 (11749266_a_at) / RFU SNX32 (11753110_a_at) / Fold change /veh SNX32 (11753110_a_at) / RFU CDHR5 (11726645_a_at) / Fold change /veh CDHR5 (11726645_a_at) / RFU RCAN1 (11760418_a_at) / Fold change /veh RCAN1 (11760418_a_at) / RFU FAM167A (11723789_a_at) / Fold change /veh FAM167A (11723789_a_at) / RFU FAM26E (11764081_at) / Fold change /veh FAM26E (11764081_at) / RFU ISYNA1 (11749810_s_at) / Fold change /veh ISYNA1 (11749810_s_at) / RFU ACY1 (11761880_at) / Fold change /veh ACY1 (11761880_at) / RFU 11764098_at / Fold change /veh 11764098_at / RFU SAMD14 (11745864_x_at) / Fold change /veh SAMD14 (11745864_x_at) / RFU NPB (11741838_a_at) / Fold change /veh NPB (11741838_a_at) / RFU TMPRSS6 (11731388_a_at) / Fold change /veh TMPRSS6 (11731388_a_at) / RFU KRTAP10-2 (11738614_at) / Fold change /veh KRTAP10-2 (11738614_at) / RFU ARHGAP8 /// PRR5-ARHGAP8 (11727945_x_at) / Fold change /veh ARHGAP8 /// PRR5-ARHGAP8 (11727945_x_at) / RFU KRTAP5-7 /// NADSYN1 (11734609_at) / Fold change /veh KRTAP5-7 /// NADSYN1 (11734609_at) / RFU RASL12 (11751679_a_at) / Fold change /veh RASL12 (11751679_a_at) / RFU CDKN2B (11736163_a_at) / Fold change /veh CDKN2B (11736163_a_at) / RFU PRF1 (11729649_at) / Fold change /veh PRF1 (11729649_at) / RFU, ZNF638 /// ZNF638-IT1 / Fold change vs veh, ZNF638 /// ZNF638-IT1 / RFU, PANK3 / Fold change vs veh, PANK3 / RFU, SH3YL1 / Fold change vs veh, SH3YL1 / RFU, ZEB2 / Fold change vs veh, ZEB2 / RFU, NRIP1 / Fold change vs veh, NRIP1 / RFU, PTTG1IP / Fold change vs veh, PTTG1IP / RFU, CAPN2 / Fold change vs veh, CAPN2 / RFU, MED14 / Fold change vs veh, MED14 / RFU, SNORA58 / Fold change vs veh, SNORA58 / RFU, C1orf63 / Fold change vs veh, C1orf63 / RFU, LRRFIP1 / Fold change vs veh, LRRFIP1 / RFU, NDUFAF7 / Fold change vs veh, NDUFAF7 / RFU, SLC12A2 / Fold change vs veh, SLC12A2 / RFU, IBTK / Fold change vs veh, IBTK / RFU, ESF1 / Fold change vs veh, ESF1 / Fold change vs veh, TMEM50B / RFU, TAOK1 / Fold change vs veh, TAOK1 / RFU, ACBD3 / Fold change vs veh, ACBD3 / RFU, TMA16 / Fold change vs veh, TMA16 / RFU, RWDD3 / Fold change vs veh, RWDD3 / RFU, BCAT1 / Fold change vs veh, BCAT1 / RFU, EDEM3 / Fold change vs veh, EDEM3 / RFU, TMEM33 / Fold change vs veh, TMEM33 / RFU, WDR75 / Fold change vs veh, WDR75 / RFU, AHCTF1 / Fold change vs veh, AHCTF1 / RFU, TFRC / Fold change vs veh, TFRC / RFU, ZDHHC17 / Fold change vs veh, ZDHHC17 / RFU, NOM1 / Fold change vs veh, NOM1 / RFU, ARL8B / Fold change vs veh, ARL8B / RFU, ZBTB11 / Fold change vs veh, ZBTB11 / RFU, TAMM41 / Fold change vs veh, TAMM41 / RFU, KIAA1704 /// LOC100996395 / Fold change vs veh, KIAA1704 /// LOC100996395 / RFU, ING1 / Fold change vs veh, ING1 / RFU, TRMT61B / Fold change vs veh, TRMT61B / RFU, FUBP3 / Fold change vs veh, FUBP3 / RFU, TP53 / Fold change vs veh, TP53 / RFU, TNKS2 / Fold change vs veh, TNKS2 / RFU, ZFP14 / Fold change vs veh, ZFP14 / RFU, ACTR2 / Fold change vs veh, ACTR2 / RFU, PPP3R1 / Fold change vs veh, PPP3R1 / RFU, PIK3R1 / Fold change vs veh, PIK3R1 / RFU, HNRNPA1 / Fold change vs veh, HNRNPA1 / RFU, RNF170 / Fold change vs veh, RNF170 / RFU, ZNF28 / Fold change vs veh, ZNF28 / RFU, RNGTT / Fold change vs veh, RNGTT / RFU, OGT / Fold change vs veh, OGT / RFU, BRD1 / Fold change vs veh, BRD1 / RFU, MARS / Fold change vs veh, MARS / RFU, ZNF655 / Fold change vs veh, ZNF655 / RFU, FAHD1 / Fold change vs veh, FAHD1 / RFU, BDP1 / Fold change vs veh, BDP1 / RFU, LRRCC1 / Fold change vs veh, LRRCC1 / RFU, ARID1A / Fold change vs veh, ARID1A / RFU, ZNF146 / Fold change vs veh, ZNF146 / RFU, ZNF330 / Fold change vs veh, ZNF330 / RFU, GPN3 / Fold change vs veh, GPN3 / RFU, C9orf123 / Fold change vs veh, C9orf123 / RFU, N4BP2L2 / Fold change vs veh, N4BP2L2 / RFU, ARFIP1 / Fold change vs veh, ARFIP1 / RFU, FAM179B / Fold change vs veh, FAM179B / RFU, BCL10 / Fold change vs veh, BCL10 / RFU, UHRF1BP1L / Fold change vs veh, UHRF1BP1L / RFU, BET1 / Fold change vs veh, BET1 / RFU, CNOT2 / Fold change vs veh, CNOT2 / RFU, ZNF268 / Fold change vs veh, ZNF268 / Fold change vs veh, ZNF507 / RFU, DGCR2 / Fold change vs veh, DGCR2 / RFU, WDSUB1 / Fold change vs veh, WDSUB1 / Fold change vs veh, HSP90B1 /// MIR3652 / RFU, ADSS / Fold change vs veh, ADSS / RFU, GK / Fold change vs veh, GK / RFU, ZNF148 / Fold change vs veh, ZNF148 / RFU, TAF9 / Fold change vs veh, TAF9 / RFU, SLC1A5 / Fold change vs veh, SLC1A5 / RFU, SLMO2 / Fold change vs veh, SLMO2 / RFU, ABCC4 / Fold change vs veh, ABCC4 / RFU, LOC101060439 /// RAP1B / Fold change vs veh, LOC101060439 /// RAP1B / RFU, RFX7 / Fold change vs veh, RFX7 / RFU, GTPBP10 / Fold change vs veh, GTPBP10 / RFU, CNEP1R1 / Fold change vs veh, CNEP1R1 / RFU, BIVM-ERCC5 /// ERCC5 / Fold change vs veh, BIVM-ERCC5 /// ERCC5 / RFU, ILF3 / Fold change vs veh, ILF3 / RFU 11762660_at / Fold change /veh 11762660_at / RFU VCAN (11757783_s_at) / Fold change /veh VCAN (11757783_s_at) / RFU DDX43 (11728927_at) / Fold change /veh DDX43 (11728927_at) / RFU KRT8 (11758188_x_at) / Fold change /veh KRT8 (11758188_x_at) / RFU NKD1 (11759106_at) / Fold change /veh NKD1 (11759106_at) / RFU SRD5A1 (11742802_a_at) / Fold change /veh SRD5A1 (11742802_a_at) / RFU TPSAB1 /// TPSB2 (11721975_s_at) / Fold change /veh TPSAB1 /// TPSB2 (11721975_s_at) / RFU GSTM3 (11746129_a_at) / Fold change /veh GSTM3 (11746129_a_at) / RFU IL23R (11737362_x_at) / Fold change /veh IL23R (11737362_x_at) / RFU TMEM51 (11727254_a_at) / Fold change /veh TMEM51 (11727254_a_at) / RFU PIWIL2 (11732686_x_at) / Fold change /veh PIWIL2 (11732686_x_at) / RFU ORM1 (11744905_x_at) / Fold change /veh ORM1 (11744905_x_at) / RFU CCDC152 (11743942_at) / Fold change /veh CCDC152 (11743942_at) / RFU ECM1 (11717891_a_at) / Fold change /veh ECM1 (11717891_a_at) / RFU IL23R (11748794_a_at) / Fold change /veh IL23R (11748794_a_at) / RFU TNFAIP8L3 (11732012_x_at) / Fold change /veh TNFAIP8L3 (11732012_x_at) / RFU MBOAT4 (11741988_at) / Fold change /veh MBOAT4 (11741988_at) / RFU 11764193_at / Fold change /veh 11764193_at / RFU TMEM53 (11763286_at) / Fold change /veh TMEM53 (11763286_at) / RFU MAGEB2 (11727129_at) / Fold change /veh MAGEB2 (11727129_at) / RFU TMEM200A (11744735_a_at) / Fold change /veh TMEM200A (11744735_a_at) / RFU CCDC152 (11751479_a_at) / Fold change /veh CCDC152 (11751479_a_at) / RFU FAM211A (11726209_a_at) / Fold change /veh FAM211A (11726209_a_at) / RFU RGS16 (11746705_a_at) / Fold change /veh RGS16 (11746705_a_at) / RFU VCAN (11755009_s_at) / Fold change /veh VCAN (11755009_s_at) / RFU RHOB (11743442_s_at) / Fold change /veh RHOB (11743442_s_at) / RFU RGS16 (11720943_a_at) / Fold change /veh RGS16 (11720943_a_at) / RFU RGS16 (11720944_at) / Fold change /veh RGS16 (11720944_at) / RFU, VPS4B / Fold change vs veh, VPS4B / RFU, CREB1 / Fold change vs veh, CREB1 / RFU, DNAJC13 / Fold change vs veh, DNAJC13 / RFU, GNAQ / Fold change vs veh, GNAQ / RFU, CDK5R1 / Fold change vs veh, CDK5R1 / RFU, ZRANB3 / Fold change vs veh, ZRANB3 / RFU, CUL4A / Fold change vs veh, CUL4A / RFU, CCNY / Fold change vs veh, CCNY / RFU, UFL1 / Fold change vs veh, UFL1 / RFU, COG3 / Fold change vs veh, COG3 / RFU, DIAPH2 / Fold change vs veh, DIAPH2 / RFU, SKA2 / Fold change vs veh, SKA2 / RFU, AFF3 / Fold change vs veh, AFF3 / RFU, LMF1 / Fold change vs veh, LMF1 / RFU, IPO11 / Fold change vs veh, IPO11 / RFU, DFFB / Fold change vs veh, DFFB / RFU, FOXP1 / Fold change vs veh, FOXP1 / RFU, CARD8 / Fold change vs veh, CARD8 / RFU, STRN3 / Fold change vs veh, STRN3 / RFU, ADK / Fold change vs veh, ADK / RFU, RASSF2 / Fold change vs veh, RASSF2 / RFU, WIPF1 / Fold change vs veh, WIPF1 / RFU, LARP1B / Fold change vs veh, LARP1B / RFU, RASA1 / Fold change vs veh, RASA1 / RFU, RB1 / Fold change vs veh, RB1 / RFU, PPFIA1 / Fold change vs veh, PPFIA1 / RFU, MAT2A / Fold change vs veh, MAT2A / RFU, CCT5 / Fold change vs veh, CCT5 / RFU, WDR92 / Fold change vs veh, WDR92 / RFU, CUX1 / Fold change vs veh, CUX1 / RFU, TTC7A / Fold change vs veh, TTC7A / RFU, TMEM135 / Fold change vs veh, TMEM135 / RFU, DEPTOR / Fold change vs veh, DEPTOR / RFU, CPM / Fold change vs veh, CPM / RFU, DNAJB6 / Fold change vs veh, DNAJB6 / RFU, CACNA2D3 / Fold change vs veh, CACNA2D3 / RFU, DTX4 / Fold change vs veh, DTX4 / RFU, TFCP2 / Fold change vs veh, TFCP2 / RFU, GMCL1 /// GMCL1P1 / Fold change vs veh, GMCL1 /// GMCL1P1 / RFU, AEBP2 / Fold change vs veh, AEBP2 / RFU, SNHG1 /// SNORD22 /// SNORD25 /// SNORD26 /// SNORD27 /// SNORD28 /// SNORD29 /// SNORD31 / Fold change vs veh, SNHG1 /// SNORD22 /// SNORD25 /// SNORD26 /// SNORD27 /// SNORD28 /// SNORD29 /// SNORD31 / Fold change (Aza/veh), C12orf56 (ProbeSet 11735607_a_at) / Fold change (ACY-1035/veh), C12orf56 (ProbeSet 11735607_a_at) / Fold change (Aza/veh), FGFR1OP (ProbeSet 11751329_s_at) / Fold change (ACY-1035/veh), FGFR1OP (ProbeSet 11751329_s_at) / Fold change (Aza/veh), VPS36 (ProbeSet 11739960_a_at) / Fold change (ACY-1035/veh), VPS36 (ProbeSet 11739960_a_at) / RFU SYPL1 (11715823_x_at) / Fold change /veh SYPL1 (11715823_x_at) / RFU IGFBP7 (11715501_s_at) / Fold change /veh IGFBP7 (11715501_s_at) / RFU REEP3 (11722064_at) / Fold change /veh REEP3 (11722064_at) / RFU IGLL1 (11728026_x_at) / Fold change /veh IGLL1 (11728026_x_at): dose or concentration left out as unconfirmed
# Settings: ProbeSet 11743286_at; LIST D
smiles,measurement,value
Nc1ncn([C@@H]2O[C@H](CO)[C@@H](O)[C@H]2O)c(=O)n1 [azacitidine],"RFU, DTX4",164.39 RFU
